{"source": "paper PMC11660126", "about": "“Demethylzeylasteral inhibits oxidative phosphorylation complex biogenesis by targeting LRPPRC in lung cancer” (Journal of Cancer, 2025)", "biological_target": "T1, LRPPRC (Leucine-rich pentatricopeptide repeat-containing protein) (Homo sapiens, UniProt P42704)", "T1 construct": "GST fusion)", "T1 sequence (P42704 1121-1394)": "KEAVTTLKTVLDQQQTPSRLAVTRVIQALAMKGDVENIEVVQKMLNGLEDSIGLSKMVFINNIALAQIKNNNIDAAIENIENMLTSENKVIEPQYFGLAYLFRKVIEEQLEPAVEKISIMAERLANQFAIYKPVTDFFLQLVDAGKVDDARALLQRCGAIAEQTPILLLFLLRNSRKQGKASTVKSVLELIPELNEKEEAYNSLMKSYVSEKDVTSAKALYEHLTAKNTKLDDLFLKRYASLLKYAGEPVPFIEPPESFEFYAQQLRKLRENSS", "assay": "Intrinsic fluorescence quenching titration of purified LRPPRCΔ[…]; confirmed by BLI (KD […]) and CETSA in A549 and H1299 cells", "format": "binding", "data": [{"compound": "C[C@@]1(C(=O)O)CC[C@]2(C)CC[C@]3(C)C4=CC(=O)c5c(cc(O)c(O)c5C=O)[C@]4(C)CC[C@@]3(C)[C@@H]2C1", "note": "[T-96, Demethylzeylasteral]", "values": [{"measurement": "Kd", "result": 21.4, "unit": "µM"}]}]}
